Where a name gives a salt, the structure may show the parent alone.
How the values were obtained:
Type in all cases: cell-based
[1] = tested on: Escherichia coli NCTC 10418; experiment: Agar plate multi-point inoculation, colour
[2] = tested on: Providencia rettgeri NCTC 7475; experiment: Agar plate multi-point inoculation, colour
[3] = tested on: Enterobacter cloacae NCTC 11936; experiment: Agar plate multi-point inoculation, colour
[4] = tested on: Serratia marcescens NCTC 10211; experiment: Agar plate multi-point inoculation, colour
[5] = tested on: Salmonella typhimurium NCTC 74; experiment: Agar plate multi-point inoculation, colour
[6] = tested on: Pseudomonas aeruginosa NCTC 10662; experiment: Agar plate multi-point inoculation, colour
[7] = tested on: Yersinia enterocolitica NCTC 11176; experiment: Agar plate multi-point inoculation, colour; conditions: Columbia agar, FAC 500 mg/L, substrate 300 mg/L, 37° C. 18 h in air
[8] = tested on: Steptococcus pyogenes NCTC 8306; experiment: Agar plate multi-point inoculation, colour
[9] = tested on: Staphylococcus aureus (MRSA) NCTC 11939; experiment: Agar plate multi-point inoculation, colour; conditions: Columbia agar, FAC 500 mg/L, substrate 300 mg/L, 37° C. 18 h in air
[10] = tested on: Staphylococcus aureus NCTC 6571; experiment: Agar plate multi-point inoculation, colour
[11] = tested on: Staphylococcus epidermidis NCTC 11047; experiment: Agar plate multi-point inoculation, colour
[12] = tested on: Listeria monocytogenes NCTC 11994; experiment: Agar plate multi-point inoculation, colour
[13] = tested on: Enterococcus faecium NCTC 7171; experiment: Agar plate multi-point inoculation, colour
[14] = tested on: Enterococcus faecalis NCTC 775; experiment: Agar plate multi-point inoculation, colour
[15] = tested on: Bacillus subtilis NCTC 9372; experiment: Agar plate multi-point inoculation, colour
[16] = tested on: Candida albicans ATCC 90028; conditions: Columbia agar, FAC 500 mg/L, substrate 300 mg/L, 37° C. 18 h in air
[17] = tested on: Candida glabrata NCPF 3943; experiment: Agar plate multi-point inoculation, colour
[18] = tested on: Burkholderia cepacia 1222; experiment: Agar plate multi-point inoculation, colour; conditions: Columbia agar, FAC 500 mg/L, substrate 300 mg/L, 37° C. 18 h in air
[19] = tested on: Citrobacter freundii NCTC 9750 or 46262; experiment: Agar plate multi-point inoculation, colour; conditions: Columbia agar, FAC 500 mg/L, substrate 300 mg/L, 37° C. 18 h in air
[20] = tested on: Morganella morganii 462403 (wild); experiment: Agar plate multi-point inoculation, colour; conditions: Columbia agar, FAC 500 mg/L, substrate 300 mg/L, 37° C. 18 h in air
[21] = tested on: clinical isolates of E. coli
E. cloacae = experiment: Glucuronide screen, broth containing FAC
E. faecium NCTC 7171 = experiment: Glucuronide screen, broth containing FAC; conditions: E. faecium NCTC 7171, broth
E. faecalis NCTC 775 = experiment: Glucuronide screen, broth containing FAC; conditions: E. faecalis NCTC 775, broth
[22] = tested on: E. coli expressing both β-D-glucuronidase and β-D-galactosidase; experiment: Broth medium with ONPG (dual chromogenic system); conditions: broth with FAC, ONPG 1.5 g/L
Method: (§1) The two indoxyl glucuronides used produce insoluble endpoints following hydrolysis, as does the CPS ID 3 medium. It was therefore necessary to test these two substrates on agar plates. In contrast, DHN-β-D-glucuronide (12) gives a much more soluble endpoint best suited to liquid media and was therefore tested in a broth medium. The broth was prepared using proteose peptone (2 g), NaCl (1 g) and FAC (100 mg) in DI water (180 mL). This mixture was autoclaved and cooled to room temperature before being dispensed into bijoux (100×1.8 mL). DHN-β-D-glucuronide CHA salt (12a) (60 mg) was dissolved in water (20 mL) and filtered to sterilize before being aseptically dispensed into successive bijoux (0.2 mL) containing the broth solution. The broth/substrate solutions were then inoculated with bacterial suspensions made up to 0.5 McFarland standard (2 μL per bijoux). X-β-D-glucuronide CHA salt (Glycosynth Ltd, Warrington, UK) (10 mg) was dissolved in NMP (200 μL). […]
(§2) Because many E. coli produce both β-D-glucuronidase and β-D-galactosidase, DHN-β-D-glucuronide (12a) was tested as in the broth medium described above but in the presence of ONPG (at a concentration of 1.5 g/L). […] The colour of these solutions of mixed chromogens could be very readily distinguished with the unaided eye from the yellow colour of those strains, such as E. cloacae, that produced β-D-galactosidase only. […]

Shigella sonnei = experiment: Broth medium with ONPG (dual chromogenic system); conditions: combination with ONPG
Method: as §1, §2

O=C(O)C1OC(Oc2cc3ccccc3cc2O)C(O)C(O)C1O [Compound 12a, DHN-β-D-glucuronide CHA Salt]
Colour [1]: ++
hydrolysis of substrate (judged by colour) [1]: strong colour
Colour [2]: −
Colour [3]: −
Colour [4]: −
Colour [5]: −
Colour [6]: −
Colour [7]: −
Colour [8]: −
Colour [9]: −
Colour [10]: −
Colour [11]: −
Colour [12]: −
Colour [13]: −
Colour [14]: −
Colour [15]: −
Colour [16]: −
Colour [17]: −
Colour [18]: −
Colour [19]: −
Colour [20]: −
% Sensitivity [21]: 82%
Colour [21]: Purple and −
Negative strains [21]: 18
Positive strains [21]: 82
Colour (E. cloacae; E. cloacae 260329R, broth): −
Colour (E. cloacae; E. cloacae NCTC 11936, broth): −
Colour (E. faecium NCTC 7171): −
Colour (E. faecalis NCTC 775): −
colour of solutions [22]: purple-brown solutions
detection of β-D-glucuronidase activity (Shigella sonnei): able to detect
